Measurements from PubChem BioAssay (NCI).
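All cell lines were grown in 96-well plates and treated with compound for 48 hours. At the TGI there is no net growth.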

Legend:
Assay in all cases: DTP human tumour cell line panel, 48 h
[1] = system: DLD-1 colon
[2] = system: KM20L2 colon
[3] = system: XF 498 CNS
[4] = system: HOP-18 NSCLC
[5] = system: DMS 273 small cell lung
[6] = system: LXFL 529 NSCLC
[7] = system: SNB-78 CNS
[8] = system: M19-MEL melanoma
[9] = system: RXF-631 renal

Measured: TGI

O=C1CCCCC1C1(O)C(=O)Nc2cc(F)ccc21 (stereo unspecified)
not listed: [9]
> 100 µM: all other assays above

CNC(=S)NNC(=O)c1c(C)nc2sccn12
not listed: [7]
> 100 µM: all other assays above

COc1ccc(NC(=O)CSc2nnc(Cc3ccccc3)o2)cc1
not listed: [3] | [9]
> 100 µM: all other assays above

Cn1c(=O)c2c(ncn2CCCCn2ccnc2[N+](=O)[O-])n(C)c1=O
not listed: [1] | [4] | [9]
> 100 µM: all other assays above

COC1=C(C)C(=O)C2C(C1=O)C(c1ccc(OC)c(OC)c1)[C@H]2C (stereo partly specified)
not listed: [2] | [4]
> 100 µM: all other assays above
